According to patent publication US5773421A, “Antifungal fusacandins” (Abbott Laboratories, priority 1995, dated 1998):
Converted amounts (≈) assume the structure as drawn.

Columns and labels:
Assay in all cases: MIC by agar dilution method
Format in all cases: cell-based
[1] = system: Candida albicans 579a; details: Table 6c; II Candida albicans 579a; agar dilution; read-out: MIC II
Method: (§1) Minimal inhibitory concentrations (MICs) were determined by an agar dilution method. The test compounds were serially diluted in MeOH and 0.2 mL portions were mixed with 20 mL of molten, cooled Sabouraud dextrose agar (Difco). Yeast cell inoculum was prepared by growing cultures on Sabouraud dextrose agar for 18 hours at 32° C. and suspending the cells in phosphate buffered saline. Filamentous fungi were grown under the same conditions for 4 days to obtain spores. The inoculum level for all cultures was adjusted to 10^4 cells using a Petroff-Hauser cell counter. The glutarimide antifungal compounds cycloheximide or amphotericin B were used as a control. Inoculated test plates were incubated at 32° C. and examined after 20 hours.

[2] = system: Candida albicans CCH 442; details: CCH442; Table 6c, 3rd value column (head printed II); III Candida albicans CCH 442; agar dilution; read-out: MIC II
Method: as §1

[3] = system: Candida albicans ATCC 10231; details: ATCC10231; Table 6c; I Candida albicans ATCC 10231; agar dilution; read-out: MIC I
Method: as §1

[4] = system: Candida albicans ATCC 62376; details: ATCC62376; Table 6c; V Candida albicans ATCC 62376; agar dilution; read-out: MIC V
Method: as §1

[5] = system: Candida albicans ATCC 38247; details: ATCC38247; Table 6c; IV Candida albicans ATCC 38247; agar dilution; read-out: MIC IV
Method: as §1

MIC [1] [µg/mL] | MIC [2] [µg/mL] | MIC [3] [µg/mL] | MIC [4] [µg/mL] | MIC [5] [µg/mL] | SMILES
25 (≈ 21.2 µM) | 25 (≈ 21.2 µM) | 25 (≈ 21.2 µM) | 12.5 (≈ 10.6 µM) | 50 (≈ 42.3 µM) | CCCCC/C=C/C=C/[C@@H](O)C/C=C/C=C/C(=O)O[C@@H]1[C@@H](O)[C@H](c2c(O)cc(O)cc2CO)O[C@H](CO)[C@H]1O[C@@H]1O[C@H](COC(=O)c2ccc(-c3ccc(OCCCCCCCC)cc3)cc2)[C@H](O)[C@H](O)[C@H]1O[C@@H]1O[C@H](CO)[C@H](O)[C@H](O)[C@H]1O [Example 38]
12.5 (≈ 12.2 µM) | 6.25 (≈ 6.08 µM) | 12.5 (≈ 12.2 µM) | 12.5 (≈ 12.2 µM) | 12.5 (≈ 12.2 µM) | CCCCC/C=C/C=C/[C@@H](O)C/C=C/C=C/C(=O)O[C@@H]1[C@@H](O)[C@H](c2c(O)cc(O)cc2CO)O[C@H](CO)[C@H]1O[C@@H]1O[C@H](COC(=O)CCCCCCCCC)[C@H](O)[C@H](O)[C@H]1O[C@@H]1O[C@H](CO)[C@H](O)[C@H](O)[C@H]1O [Example 13]
0.78 (≈ 0.707 µM) | 1.56 (≈ 1.41 µM) | 1.56 (≈ 1.41 µM) | 1.56 (≈ 1.41 µM) | 1.56 (≈ 1.41 µM) | CCCCC/C=C/C=C/[C@@H](O)C/C=C/C=C/C(=O)O[C@@H]1[C@@H](O)[C@H](c2c(O)cc(O)cc2CO)O[C@H](CO)[C@H]1O[C@@H]1O[C@H](COC(=O)c2ccc(-c3ccc4ccccc4c3)cc2)[C@H](O)[C@H](O)[C@H]1O[C@@H]1O[C@H](CO)[C@H](O)[C@H](O)[C@H]1O [Example 29]
1.56 (≈ 1.41 µM) | 1.56 (≈ 1.41 µM) | 3.12 (≈ 2.82 µM) | 0.78 (≈ 0.706 µM) | 1.56 (≈ 1.41 µM) | CCCCC/C=C/C=C/[C@@H](O)C/C=C/C=C/C(=O)O[C@@H]1[C@@H](O)[C@H](c2c(O)cc(O)cc2CO)O[C@H](CO)[C@H]1O[C@@H]1O[C@H](COC(=O)c2ccc(OCCCCCCCC)cc2)[C@H](O)[C@H](O)[C@H]1O[C@@H]1O[C@H](CO)[C@H](O)[C@H](O)[C@H]1O [Example 18]
0.78 (≈ 0.759 µM) | 1.56 (≈ 1.52 µM) | 3.12 (≈ 3.04 µM) | 3.12 (≈ 3.04 µM) | 0.78 (≈ 0.759 µM) | CCCCC/C=C/C=C/[C@@H](O)C/C=C/C=C/C(=O)O[C@@H]1[C@@H](O)[C@H](c2c(O)cc(O)cc2CO)O[C@H](CO)[C@H]1O[C@@H]1O[C@H](COC(=O)c2ccc3ccccc3c2)[C@H](O)[C@H](O)[C@H]1O[C@@H]1O[C@H](CO)[C@H](O)[C@H](O)[C@H]1O [Example 19]
0.2 (≈ 0.185 µM) | 0.78 (≈ 0.721 µM) | 0.78 (≈ 0.721 µM) | 0.39 (≈ 0.361 µM) | 0.78 (≈ 0.721 µM) | CCCCC/C=C/C=C/[C@@H](O)C/C=C/C=C/C(=O)O[C@@H]1[C@@H](O)[C@H](c2c(O)cc(O)cc2CO)O[C@H](CO)[C@H]1O[C@@H]1O[C@H](COC(=O)c2ccc(-c3ccc(CC)cc3)cc2)[C@H](O)[C@H](O)[C@H]1O[C@@H]1O[C@H](CO)[C@H](O)[C@H](O)[C@H]1O [Example 21]
3.12 (≈ 3 µM) | 3.12 (≈ 3 µM) | 6.25 (≈ 6 µM) | 6.25 (≈ 6 µM) | 12.5 (≈ 12 µM) | CCCCC/C=C/C=C/[C@@H](O)C/C=C/C=C/C(=O)O[C@@H]1[C@@H](O)[C@H](c2c(O)cc(O)cc2CO)O[C@H](CO)[C@H]1O[C@@H]1O[C@H](COC(=O)Cc2ccc3ccccc3c2)[C@H](O)[C@H](O)[C@H]1O[C@@H]1O[C@H](CO)[C@H](O)[C@H](O)[C@H]1O [Example 22]
1.56 (≈ 1.44 µM) | 0.78 (≈ 0.72 µM) | 0.78 (≈ 0.72 µM) | 0.78 (≈ 0.72 µM) | 3.12 (≈ 2.88 µM) | CCCCC/C=C/C=C/[C@@H](O)C/C=C/C=C/C(=O)O[C@@H]1[C@@H](O)[C@H](c2c(O)cc(O)cc2CO)O[C@H](CO)[C@H]1O[C@@H]1O[C@H](COC(=O)c2ccc(-c3ccc(OC)cc3)cc2)[C@H](O)[C@H](O)[C@H]1O[C@@H]1O[C@H](CO)[C@H](O)[C@H](O)[C@H]1O [Example 32]
6.25 (≈ 5.85 µM) | 6.25 (≈ 5.85 µM) | 12.5 (≈ 11.7 µM) | 12.5 (≈ 11.7 µM) | 6.25 (≈ 5.85 µM) | CCCCC/C=C/C=C/[C@@H](O)C/C=C/C=C/C(=O)O[C@@H]1[C@@H](O)[C@H](c2c(O)cc(O)cc2CO)O[C@H](CO)[C@H]1O[C@@H]1O[C@H](COC(=O)c2ccc(-c3ccc(O)cc3)cc2)[C@H](O)[C@H](O)[C@H]1O[C@@H]1O[C@H](CO)[C@H](O)[C@H](O)[C@H]1O [Example 41]
